From publication PMC7238388, “Biological Evaluation of Newly Synthesized Biaryl Guanidine Derivatives to Arrest β-Secretase Enzymatic Activity Involved in Alzheimer's Disease” (BioMed Research International, 2020) come the findings set out here.

The target in one series is T1, BACE1 enzyme (Homo sapiens, UniProt P56817).
T1 construct: purchased Sigma-Aldrich CS0010
Description: BACE1 FRET-based inhibitory activity assay (Sigma-Aldrich kit CS0010). The class given is biochemical. As to the method:
BACE1 inhibitory activity was carried out by adopting the procedures described by the Sigma-Aldrich FRET-based assay activity kit (product # CS0010).
Briefly, the assay was carried out in a fixed volume of 100 μl with the BACE1 substrate (20 μl, 50 μM), assay buffer (78 μl/78-X μl, pH 4.5), test sample(s) (X μl, 100 μM), and BACE1 enzyme (2 μl, ~0.3 unit/μl) incubated at 37°C for 75 min in 96-well microplate reaction mixture. The baseline fluorescence (null time) signal was noticed (at 320 nm) immediately after the addition of BACE1 enzymes while emission signals were monitored at 405 nm at 25°C. Both the enzyme and the substrate were prepared in the buffer while tested samples dissolved primarily in DMSO (5%) subsequently in serially diluted buffer solution in a desired volume of 2 μl, 3 μl, and 5 μl having 200 pmol, 300 pmol, and 500 pmol concentration, respectively. A standard curve was prepared between fluorescent unit (FU) and standard solution (100 μM, 100-500 pmol, and 1-5 μl) to find out 50% BACE1 cleaving activity. The sample blank (buffer with substrate) was treated as the negative control while the positive control was the solution of the buffer with substrate and enzyme mixture (http://www.sigmaaldrich.com). Finally, IC50 of the intended compounds were calculated via GraphPad Prism v8 software.

In series [1] the test system is AlCl3-induced mouse models. Kind of series: Novel object recognition memory test in AlCl3-induced AD model mice. The class given is in vivo, BALB/c mice. To be noted: AD model treated with compound; control 64.44 ± 2.50 s, AD model 31.80 ± 2.00 s; p < 0.05. On the procedure: (§1) Male BALB/c mice (3.5 to 5.5 months of age) were purchased from National Institute of Health (NIH) Islamabad, Pakistan. All experiments were performed by following the rules and regulations in accordance with the Helsinki Declaration after getting permission from the Departmental Review Committee (Ref. # PHM.Eth/CS-M01/18-001 dated 05/2018). Animals were kept in standard cages and provided food, water, and cleanliness in accordance with the documented protocols. Moreover, they were categorized into nine groups (n = 10) for experimental purposes.
(§2) The control group of mice was treated with drinking water having aluminum chloride (17 mg/kg) and tape water for a period of five weeks. Synthesized ligands (20-55 mg/kg) were administered to neutralize the AlCl3 effects and to design treated mouse groups. All the behavioral tests were performed on days 28 to 34 (08:30 am to 4:30 pm at 25 ± 2°C). Animals were shifted 20 minutes prior to the experimentation room to get accustomed with the test environment. Trials were recorded via videocam, and results were obtained to reveal the final conclusions.
The novel object recognition memory test is an additional procedure to describe and evaluate the memory of the rodents. The entire methodology was performed in a specific designed box of dimensions about 25 cm × 25 cm × 25 cm at daytime (25 ± 2°C). […]

Series [2] deals with AlCl3-induced neurotoxic mice. Kind of series: Morris water maze test in AlCl3-induced neurotoxicity mice. The class given is in vivo, BALB/c mice. On the procedure: as §1, §2
To evaluate 3D spatial recalling memory of the animals under observations, an authentic and sensitive assay “Morris water maze test” was carried out.
The apparatus used for this test has a round pool with a 120 cm diameter and a 60 cm of depth. The pool is divided into 4 hypothetical quadrants North, West, South, and East. The experiment began on day 28, and 5 trials were executed each day. The mouse was given 1 min to find out the hidden platform with a 10 min interval between the two successive trials. The usual time essential for a mouse to reach at the platform was recorded, and an average of 5 trials was presumed as the escape latency of the animal for that day. On the 32nd day of intervention, a probe test was executed when there was no platform, with a different release position. The spatial memory of the mouse was estimated by computing the time spent by the mouse in the quadrant in which the platform was formerly located. […]

Setting [3] is: BACE1 FRET assay, pH 4.5, 37°C, 75 min, read-out: IC50.

SMILES strings stand for the structures. Like-named read-outs stand apart in the source and are kept apart here.

T1 sequence (P56817 46-501): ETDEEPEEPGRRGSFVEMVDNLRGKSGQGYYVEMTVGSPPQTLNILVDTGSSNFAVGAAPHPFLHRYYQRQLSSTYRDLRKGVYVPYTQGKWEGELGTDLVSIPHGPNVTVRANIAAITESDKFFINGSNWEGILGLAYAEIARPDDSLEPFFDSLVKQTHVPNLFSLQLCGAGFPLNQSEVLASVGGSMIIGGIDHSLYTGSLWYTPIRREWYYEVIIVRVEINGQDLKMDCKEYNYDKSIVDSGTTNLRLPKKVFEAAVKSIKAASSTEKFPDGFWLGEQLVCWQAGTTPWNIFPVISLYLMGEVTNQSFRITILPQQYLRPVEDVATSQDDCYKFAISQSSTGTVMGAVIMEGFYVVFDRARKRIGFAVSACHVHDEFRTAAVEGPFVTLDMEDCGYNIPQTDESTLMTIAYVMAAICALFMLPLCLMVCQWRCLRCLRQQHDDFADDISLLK

Take `N=C(Nc1ccc2ccccc2c1)Nc1ccc2ccccc2c1` [Compound 7, 1,3-di(naphthalen-2-yl)guanidine]: the melting point was 146 to 148 °C. Besides, the IC50 on BACE1 enzyme (setting [3]) was 159 µM.
Take `N=C(Nc1ccccc1[N+](=O)[O-])Nc1ccccc1[N+](=O)[O-]` [Compound 3, 1,3-bis(2-nitrophenyl)guanidine]: the melting point lay within 136 to 138 °C. Also, on BACE1 enzyme, the half-maximal inhibitory concentration (IC50) worked out at 259 µM.
`N=C(Nc1ccc2ncccc2c1)Nc1ccc2ncccc2c1` [Compound 5, 1,3-di(quinolin-6-yl)guanidine] registered a melting point of 133 to 134 °C. Moreover, the 50% inhibitory concentration (IC50) on BACE1 enzyme (setting [3]) came to 0.091 µM.
Molecule `N=C(Nc1ccccc1F)Nc1ccccc1F` [Compound 1, 1,3-bis(2-fluorophenyl)guanidine] came in with a melting point of 130 to 132 °C. The IC50 on BACE1 enzyme (setting [3]) is 85 µM.
The like results for `N=C(Nc1ccc(F)cc1)Nc1ccc(F)cc1` [Compound 12, 1,3-bis(4-fluorophenyl)guanidine] were, in that order, 146 to 148 °C and 103 µM.
The like results for `N=C(Nc1ccccn1)Nc1ccccn1` [Compound 4, 1,3-di(pyridin-2-yl)guanidine] were, in that order, 140 to 142 °C and 9 µM.
Regarding `N=C(Nc1cc(F)c2ccccc2c1)Nc1cc(F)c2ccccc2c1` [Compound 6, 1,3-bis(4-fluoronaphthalen-2-yl)guanidine], the melting point was in the range of 126 to 128 °C. Also, the IC50 at BACE1 enzyme (setting [3]) came to 0.102 µM.
In the case of `N=C(Nc1cc(C(F)(F)F)cc(C(F)(F)F)c1)Nc1cc(C(F)(F)F)cc(C(F)(F)F)c1` [Compound 8, 1,3-bis(3,5-bis(trifluoromethyl)phenyl)guanidine], the melting point was in the range of 76 to 78 °C. Also, the IC50 at BACE1 enzyme (setting [3]) amounted to 229 µM.
`N=C(Nc1ccc(Br)cc1)Nc1ccc(Br)cc1` [Compound 10, 1,3-bis(4-bromophenyl)guanidine] came in with a melting point of 250 to 252 °C. At BACE1 enzyme (setting [3]), the IC50 was found to be 321 µM. The BACE1 inhibition at BACE1 enzyme (FRET assay, at 500 pmol) was 35%.
With `N=C(Nc1ccc(F)c(F)c1)Nc1ccc(F)c(F)c1` [Compound 13, 1,3-bis(3,4-difluorophenyl)guanidine], at BACE1 enzyme (setting [3]), the IC50 was determined as 71 µM.
The molecule `N=C(Nc1ccc(Cl)cc1F)Nc1ccc(Cl)cc1F` [Compound 11, 1,3-bis(4-chloro-2-fluorophenyl)guanidine] displayed a melting point of 160 to 162 °C. In addition, on BACE1 enzyme (setting [3]), the IC50 amounted to 172 µM.
Taken in the same sequence, the figures for `N=C(Nc1ccc(Br)c2ccccc12)Nc1ccc(Br)c2ccccc12` [Compound 2, 1,3-bis(4-bromonaphthalen-1-yl)guanidine] were 128 to 130 °C and 235 µM.
Regarding `N=C(Nc1cnc(F)c(F)c1)Nc1cnc(F)c(F)c1` [Compound 9, 1,3-bis(5,6-difluoropyridin-3-yl)guanidine], the melting point was 128 to 130 °C. The exploration time in series [1] came out at 53.80 ± 2.15 s. The escape latency in series [2] (day 5, AlCl3-induced mice treated with compound, AlCl3 group 50.60 ± 3.70, control 20.20 ± 2.01, p < 0.05, in s (unit assumed)) was 27.72 ± 2.60. Moreover, in series [2] (probe test, AD model 6.10 ± 1.0, control 19.80 ± 1.90), the “number of crossings of the targeted quadrant” value is 16.70 ± 1.07. In addition, in series [2] (probe test, per hundred of total time (Figure 2c), AD-induced 23.6 ± 2.01, control 49.60 ± 2.35), the “time spent in exploration of the targeted quadrant” value came to 41.07 ± 2.5.

Usually IC50 stands for the concentration that gives 50% inhibition. By melting point is commonly meant the temperature, or range, at which the solid turns liquid.
